Results published in PubChem BioAssay AID210 (DTP/NCI, 2004).
Values joined by “and” are separate entries in the source; they are usually repeats but may differ in a detail not shown here. Identical values can stand only once. Toxic doses and inconclusive results are not listed.

Tested on: CD2F1 mice, ip Colon 26 adenocarcinoma, median survival T/C
Test: NCI In Vivo Anticancer Drug Screen. Data for tumor model Colon 26 Adenocarcinoma (intraperitoneal) in CD2F1 (CDF1) mice
Conditions: endpoint: median survival time, higher = longer survival
Method: The antitumor activity of compounds was measured in mice bearing transplantable tumors. Survival or tumor size were measured and the results are expressed as the measurement made in the treated group (T) divided by the measurement made in the vehicle treated control group (C). The tumor model used in this assay is Colon 26 Adenocarcinoma (intraperitoneal) in CD2F1 (CDF1) mice

[1] = dose: 50.0 mg/kg/injection, schedule: Q04DX003 (ip), vehicle: saline
[2] = dose: 100.0 mg/kg/injection, schedule: Q04DX003 (ip), vehicle: saline
[3] = dose: 200.0 mg/kg/injection, schedule: Q04DX003 (ip), vehicle: saline
[4] = dose: 400.0 mg/kg/injection, schedule: Q04DX003 (ip), vehicle: saline
[5] = dose: 12.5 mg/kg/injection, schedule: Q04DX002 (ip), vehicle: distilled water + Tween-80
[6] = dose: 50.0 mg/kg/injection, schedule: Q04DX002 (ip), vehicle: distilled water + Tween-80
[7] = dose: 100.0 mg/kg/injection, schedule: Q04DX002 (ip), vehicle: distilled water + Tween-80
[8] = dose: 200.0 mg/kg/injection, schedule: Q04DX002 (ip), vehicle: distilled water + Tween-80

CCOC(=O)c1c[nH]c2oc(/C=N/N3CC(CN4CCOCC4)OC3=O)cc2c1=O (stereo unspecified)
T/C (dose: 12.5 mg/kg/injection, schedule: Q04DX003 (ip), vehicle: suspension in saline): 97 % of control | T/C (dose: 25.0 mg/kg/injection, schedule: Q04DX003 (ip), vehicle: suspension in saline): 90 % of control | T/C (dose: 50.0 mg/kg/injection, schedule: Q04DX003 (ip), vehicle: suspension in saline): 96 % of control | T/C (dose: 100.0 mg/kg/injection, schedule: Q04DX003 (ip), vehicle: suspension in saline): 90 % of control | T/C (dose: 200.0 mg/kg/injection, schedule: Q04DX003 (ip), vehicle: suspension in saline): 101 % of control | T/C (dose: 400.0 mg/kg/injection, schedule: Q04DX003 (ip), vehicle: suspension in saline): 101 % of control

O=C1NC(O)CCN1C1OC(CO)C(O)C1O (stereo unspecified)
T/C [1]: 101 % of control | T/C [2]: 101 % of control | T/C [3]: 98 % of control | T/C [4]: 100 % of control | T/C (dose: 800.0 mg/kg/injection, schedule: Q04DX003 (ip), vehicle: saline): 108 % of control

CC1(CO)C(O)CCC2(C)C1C(O)CC1CC3CC12CCC3(O)CO (stereo unspecified)
T/C [5]: 120 % of control | T/C [6]: 98 % of control | T/C [7]: 110 % of control | T/C [8]: 103 % of control

Cc1ccc(C(=O)[O][Hg][CH2]C2COC([CH2][Hg][O]C(=O)c3ccc(C)cc3)CO2)cc1 (stereo unspecified)
T/C (dose: 12.5 mg/kg/injection, schedule: Q04DX003 (ip), vehicle: Klucel (hydroxypropylcellulose) (HPC)): 104 % of control | T/C (dose: 25.0 mg/kg/injection, schedule: Q04DX003 (ip), vehicle: Klucel (hydroxypropylcellulose) (HPC)): 92 % of control

O=S(=O)(O)O
T/C (dose: 30.0 mg/kg/injection, schedule: Q01DX009 (ip), vehicle: saline with Tween-80): 100 % of control | T/C (dose: 44.0 mg/kg/injection, schedule: Q01DX009 (ip), vehicle: saline with Tween-80): 95 % of control | T/C (dose: 67.0 mg/kg/injection, schedule: Q01DX009 (ip), vehicle: saline with Tween-80): 101 % of control

C[C@@]1(CO)[C@@H](O)CC[C@@]2(C)[C@H]1CC[C@H]1C[C@@H]3CC12CC[C@]3(O)CO
T/C [5]: 103 % of control | T/C (dose: 25.0 mg/kg/injection, schedule: Q04DX002 (ip), vehicle: distilled water + Tween-80): 109 % of control | T/C [6]: 95 % of control | T/C [7]: 109 % of control | T/C [8]: 91 % of control | T/C (dose: 400.0 mg/kg/injection, schedule: Q04DX002 (ip), vehicle: distilled water + Tween-80): 116 % of control

COc1ccc2c(c1)CCC(c1ccccc1)=C2c1ccc(OCCN2CCCC2)cc1
T/C (dose: 6.25 mg/kg/injection, schedule: Q01DX009 (ip), vehicle: saline): 115 % of control | T/C (dose: 12.5 mg/kg/injection, schedule: Q01DX009 (ip), vehicle: saline): 111 % of control | T/C (dose: 25.0 mg/kg/injection, schedule: Q01DX009 (ip), vehicle: saline): 112 % of control

NC(=O)c1[nH]nc(C2OC(CO)C(O)C2O)c1O (stereo unspecified)
T/C (dose: 2.59 mg/kg/injection, schedule: Q04DX003 (ip), vehicle: saline): 115 % of control | T/C (dose: 4.32 mg/kg/injection, schedule: Q04DX003 (ip), vehicle: saline): 107 % of control | T/C (dose: 7.2 mg/kg/injection, schedule: Q04DX003 (ip), vehicle: saline): 123 % of control | T/C (dose: 12.0 mg/kg/injection, schedule: Q04DX003 (ip), vehicle: saline): 118 % of control | T/C (dose: 20.0 mg/kg/injection, schedule: Q04DX003 (ip), vehicle: saline): 90 % of control

COC(=O)C(F)C(Br)C(=O)OC (stereo unspecified)
T/C (dose: 6.25 mg/kg/injection, schedule: Q04DX003 (ip), vehicle: saline with Tween-80): 102 % of control | T/C (dose: 12.5 mg/kg/injection, schedule: Q04DX003 (ip), vehicle: saline with Tween-80): 102 % of control | T/C (dose: 25.0 mg/kg/injection, schedule: Q04DX003 (ip), vehicle: saline with Tween-80): 111 % of control | T/C (dose: 50.0 mg/kg/injection, schedule: Q04DX003 (ip), vehicle: saline with Tween-80): 114 % of control

O=c1n(CC2CO2)c(=O)n(CC2CO2)c(=O)n1CC1CO1 (stereo unspecified)
T/C (dose: 25.0 mg/kg/injection, schedule: Q04DX003 (ip), vehicle: saline): 237 % of control | T/C (dose: 40.0 mg/kg/injection, schedule: Q04DX003 (ip), vehicle: saline): 292 % of control | T/C [1]: 237 % of control and 292 % of control | T/C (dose: 60.0 mg/kg/injection, schedule: Q04DX003 (ip), vehicle: saline): 292 % of control | T/C [2]: 193 % of control and 237 % of control | T/C [3]: 237 % of control and 292 % of control | T/C (dose: 300.0 mg/kg/injection, schedule: Q04DX003 (ip), vehicle: saline): 292 % of control | T/C [4]: 213 % of control and 292 % of control
